Source: publication PMC5861052, “Uptake and accumulation of Microcystin-LR based on exposure through drinking water: An animal model assessing the human health risk” (Scientific Reports, 2018)
Values joined by “and” are separate entries in the source; they are usually repeats but may differ in a detail not shown here. Identical values can stand only once.

How the values were obtained:
[1] = Free MC-LR in porcine tissues, experiment 1 (low dose), UPLC-MS/MS; conditions: pig, in vivo, po
Description: (§1) Following the acclimatization period of seven days, eight healthy pigs were selected randomly for the control group and the remaining eight healthy pigs assigned to the treatment group. Before treatment, animals were examined by a veterinarian to confirm clinical health and then weighed, with the weight and identification of animals in each group recorded. Over the study period (13 weeks), each animal from the treatment group received a low dose of MC-LR daily by oral gavage. The dose administered was 0.04 µg toxin/kg body weight, the provisional World Health Organization Tolerable Daily Intake (WHO TDI), based on the NOAEL derived from the animal experiment conducted by Fawell et al. (1999), with the average dose for the eight treated animals outlined in Table 3. Briefly, a 1 mg/mL solution of MC-LR was prepared by the addition of 250 µL of ethanol followed by 750 µL water. The appropriate dilutions were then performed depending on the weight of the animal to ensure the correct dose was administered in 5 mL of water.
Serum was collected weekly, starting at day -7 from treated and control animals as the pre-bleeds. […]
(§2) In order to quantify any toxins identified, a six-point extracted matrix-matched calibration curve in the range 0.001–0.1 μg/g dw was prepared using pooled control samples of the relevant tissue. […]

[2] = Bound MC-LR (MMPB) in porcine liver by Lemieux oxidation, experiment 1; conditions: pig, in vivo, po
Description: as §1, with “Briefly, a 1 mg/mL solution of MC-LR was prepared by the addition of 250 µL of ethanol followed by 750 µL water. The appropriate dilutions were then performed depending on the weight of the animal to ensure the correct dose was administered in 5 mL of water.” left out
Porcine tissue samples (50 mg) were weighed into 50 mL round bottomed flasks with the conversion and subsequent enrichment of MMPB carried out as outlined in ‘Analysis of conjugated MC-LR in porcine tissue’ (see Supplementary Information online). Samples were initially screened for MMPB, with any samples found to contain toxin quantified by use of a six point extracted matrix matched calibration curve in the range 0.010–0.25 µg/g dw using pooled control tissue of the relevant tissue, with calibrant levels achieved by spiking with the MMPB standard at a concentration of either 0.5 or 0.05 µg/mL after pH adjustment. […]

[3] = mouse, in vivo, iv; cited from earlier work
Experimental: […]. In another experiment conducted by Robinson et al. (1991) using radiolabelled MC-LR to track its distribution in mice, levels of radiolabelled MC-LR peaked in the liver after only 30 min[52], although in this case the mice were injected intravenously via the tail vein rather than by oral g ...

[4] = in vivo, cited from earlier work
Experimental: Looking at the study by Tencalla et al. (1997) in which rainbow trout were dosed with MC-LR also via oral gavage, they estimated the uptake of MC-LR into blood to be approximately 4.4% of the dose administered of 5700 µg MC-LR/kg bw[51]. Based on the findings reported by Tencalla et al. and taking the average bodyweight of the six animals in the final week of dosing in experiment (2) of our study, the average dose administered to the six animals equates to 96 µg of MC-LR per day for the last week. […].

[5] = Free MC-LR in porcine serum, experiment 1 (low dose), UPLC-MS/MS; conditions: pig, in vivo, po
Experimental: The animal studies were performed under licence (PPL 2755 - Chemical contaminants in food producing animals) issued by the Department of Health, Social Services and Public Safety in Northern Ireland (NI) in accordance with the Animal (Scientific Procedures) Act (1986), and under the approval of the Agri-Food and Biosciences Institute (AFBI) Animal Welfare and Ethical Review Body (AWERB) and associated EU Directive 2010/63/EU for animal experiments. The study was performed on behalf of Queen’s University Belfast (QUB) by the Veterinary Sciences Division, Agri-Food and Biosciences Institute, Belfast, Northern Ireland. […]
Following the acclimatization period of seven days, eight healthy pigs were selected randomly for the control group and the remaining eight healthy pigs assigned to the treatment group. Before treatment, animals were examined by a veterinarian to confirm clinical health and then weighed, with the weight and identification of animals in each group recorded. […]
Analysis was performed using an ACQUITY UPLC i-Class system coupled to a Xevo TQ-S (triple quadrupole MS/MS) Mass Spectrometer (Waters, Manchester, UK). Detection and quantification was achieved using targeted analysis using Multiple Reaction Monitoring (MRM) and operated in ESI^+ mode. […]

[6] = Free MC-LR in porcine tissues, experiment 2 (high dose), UPLC-MS/MS; conditions: pig, in vivo, po
Experimental: (§3) This study was performed as described previously using twelve male Duroc pigs, six control and six treated pigs. Housing, diet and treatment were as described previously with the following modifications:
(§4) Animals were subjected to a fourteen-day acclimatization period prior to assignment to control or treated groups. Over the study period, each animal from the treatment group received a daily dose of 2 µg toxin/kg body weight MC-LR by oral gavage, 50 times the provisional WHO TDI, with the average dose for the six treated animals outlined in Table 4
(§5) , with the MC-LR for dosing prepared as described above. At day 40 (approximately 5 weeks) treated and control animals were euthanized. Sample collection and storage was as outlined for experiment 1.
Tissue samples (see Supplementary Information online) (100 mg) were spiked with 10 μL of the NOD (IS) at 0.5 μg/mL and extracted by addition of 1.5 mL of 80% aqueous MeOH (v/v) (0.5% acetic acid v/v), vortex mixed briefly and sonicated at 35–40 °C for 45 min before centrifugation at 16 000 g for 15 min. […]
as §2

[7] = Parent ion scan of Adda fragment (m/z 135) in porcine serum; conditions: pig, in vivo
Experimental: With MC-LR and its congeners, as well as any potential metabolites of MC-LR having in common the shared Adda group ((2S, 3S, 8S, 9S)-3-amino-9-methoxy-2, 6, 8-trimethyl-10-phenyldeca-4(E), 6(E)-dienoic acid) (Fig. 1)[8], serum samples were analysed for parent ions of Adda, with this fragment having an m/z of 135. This was optimised using the MC-LR standard and indicated a peak at the same retention time as when analysed in MRM mode, with the retention window extended to allow identification of any potential MC-LR metabolites.
A selection of serum sample time points from experiment (1) were chosen (n = 32), with; t = 14, t = 42, t = 70 and t = 98 correlating to the start, one, two and three months of treatment for each animal, as well as serum from all time points (n = 36) for each animal from experiment (2).

[8] = Free MC-LR in porcine serum, experiment 2 (high dose), UPLC-MS/MS; conditions: pig, in vivo, po
Experimental: as §3, §4
, with the MC-LR for dosing prepared as described above. At day 40 (approximately 5 weeks) treated and control animals were euthanized. Sample collection and storage was as outlined for experiment 1. […]
Analysis was performed using an ACQUITY UPLC i-Class system coupled to a Xevo TQ-S (triple quadrupole MS/MS) Mass Spectrometer (Waters, Manchester, UK). Detection and quantification was achieved using targeted analysis using Multiple Reaction Monitoring (MRM) and operated in ESI^+ mode. Analyte precursor ions were identified as [M + H]^+ for both MC-LR and NOD (IS) with the quantifying (Q) and qualifying (q) ions used as follows:
To quantify any MC-LR detected, a seven point extracted matrix matched calibration curve in the range 0.2-100 ng/mL serum was prepared using the ‘negative’ porcine serum. […]

[9] = format: in vivo; conditions: pig
Experimental: as §3, §4, §5
Porcine tissue samples (50 mg) were weighed into 50 mL round bottomed flasks with the conversion and subsequent enrichment of MMPB carried out as outlined in ‘Analysis of conjugated MC-LR in porcine tissue’ (see Supplementary Information online). Samples were initially screened for MMPB, with any samples found to contain toxin quantified by use of a six point extracted matrix matched calibration curve in the range 0.010–0.25 µg/g dw using pooled control tissue of the relevant tissue, with calibrant levels achieved by spiking with the MMPB standard at a concentration of either 0.5 or 0.05 µg/mL after pH adjustment.
Conversion of any bound MC-LR and subsequent extraction was performed according to a modified method derived from Neffling et al. (2010) and developed using 50 mg aliquots of lyophilised homogenised, pooled porcine tissue from the control animals. 50 mg of tissue was weighed into a 50 mL round bottomed flask and 5 mL of oxidation solution at a concentration of 0.1 M was added, comprising both potassium permanganate (KMnO4) and sodium (meta) periodate (NaIO4) at 0.2 M mixed 1:1 v/v. The mixture was stirred at room temperature for 2 h whereby the colour of the solution turned from purple (colour of KMnO4) to red/brown (colour of the reduced product MnO2). A further 4 mL oxidation solution at 0.1 M was added turning the solution back to purple. The reaction was immediately quenched by addition of 1 mL sodium bisulphite solution (40% v/v). Following this, samples were transferred to 15 mL tubes and 10% sulphuric acid was added drop wise until the pH was acidic (~ 2). Samples were then centrifuged at 4 500 rpm for 15 min and the supernatant removed and loaded directly onto SPE cartridges.
Sample enrichment and clean-up was carried out using OASIS PRiME HLB cartridges, with samples loaded onto the cartridges, allowed to drip through under gravity then washed with water and 20% aqueous methanol (v/v). Bound MMPB was eluted into clean glass tubes using 2 x 1.5 mL 80% aqueous methanol (v/v) and the eluents evaporated to dryness under a gentle stream of nitrogen using a turbovap set at 45 °C. Samples were reconstituted in 100 µL 80% aqueous MeOH (v/v) and transferred to a micro vial for analysis.
Analysis of MMPB was performed as described above in ‘Analysis of free MC-LR and MC-LR-GSH in porcine tissues’. Detection and quantification was achieved using MRM, with MMPB seen as the [M + H]^+ ion and the transitions optimised manually as follows:
Separation was achieved using the same column and mobile phases as detailed above in ‘Analysis of free MC-LR in porcine serum’ with the flow rate set at 0.4 ml/min. The gradient used to achieve separation was as described above with the ACN initially held at 10%, then returned to 10% prior to the next injection.

Row | Molecule | free MC-LR in liver, kidney, large and small intestine tissues [1] | bound MC-LR (MMPB) in liver tissue [2] | time at which levels of radiolabelled MC-LR peaked in the liver [3] [min] | uptake of MC-LR into blood as percentage of dose administered ([4]; po) | uptake of MC-LR into the liver ([4]; po) [%] | half-life in the blood [4] [h] | time after which the liver indicated the presence of MC-LR [4] [h] | time of maximum levels in the liver after exposure [4] [h] | free MC-LR in serum [5] [ng/mL] | free MC-LR in all other tissue samples (liver, kidney, small and large intestine, spleen, brain) [6] | peaks in parent ion scan of Adda fragment m/z 135 in serum (free MC-LR or MC-LR metabolites) [7] | free MC-LR in serum [8] | MC-LR present in liver ([9]; in vivo) | Uptake of MC-LR by liver as percentage of the dose administered ([9]; in vivo) | average amount of bound MC-LR accumulated in liver ([9]; in vivo) [µg] | average uptake of MC-LR by liver as percentage of total dose administered ([9]; in vivo) [%] | estimated bound MC-LR in liver (average) ([9]; in vivo) [ng/g ww] | concentration of MMPB detected in liver (average estimated value) ([9]; livers of T2, T4 and T5, MC-LR oral gavage 2 µg/kg bw daily, Lemieux oxidation, dry weight) [ng/g dw]
1 | Microcystin-LR [MC-LR] | none of the tissues contained any trace | negative | 30 | approximately 4.4% | 1.7 | 3.3 | 1 | 3 | < 0.03 | free of MC-LR residues | negative | negative | 23.1 µg and 21.9 µg and 34.1 µg | 1.1% and 0.8% and 1.5% | 26.4 ± 5.5 | 1.1 | 23.2 | 
2 | COC(Cc1ccccc1)C(C)C(=O)O (stereo not drawn) [MMPB, 2-methyl-3-methoxy-4-phenylbutyric acid] |  |  |  |  |  |  |  |  |  |  |  |  |  |  |  |  |  | 14.4
